For the test, the target named is T1, AMPK (A1/B2/G1) (Homo sapiens, UniProt Q13131).
T1 construct: purchased Thermo Fisher Scientific (Life Technologies) SelectScreen
Nature of the test: SelectScreen LanthaScreen. The test is classed as binding. To be noted: read-out: % displacement. Summed up: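 SelectScreen broad panel; activity (Z'LYTE, Adapta) plus binding formats. ATP: Km app for CSF1R Z'LYTE; 10 for CAMK1 Adapta. Readout = % per kinase.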
In general terms: TR-FRET usually uses a lanthanide donor and a delayed reading to cut background.

T1 sequence (Q13131 whole entry): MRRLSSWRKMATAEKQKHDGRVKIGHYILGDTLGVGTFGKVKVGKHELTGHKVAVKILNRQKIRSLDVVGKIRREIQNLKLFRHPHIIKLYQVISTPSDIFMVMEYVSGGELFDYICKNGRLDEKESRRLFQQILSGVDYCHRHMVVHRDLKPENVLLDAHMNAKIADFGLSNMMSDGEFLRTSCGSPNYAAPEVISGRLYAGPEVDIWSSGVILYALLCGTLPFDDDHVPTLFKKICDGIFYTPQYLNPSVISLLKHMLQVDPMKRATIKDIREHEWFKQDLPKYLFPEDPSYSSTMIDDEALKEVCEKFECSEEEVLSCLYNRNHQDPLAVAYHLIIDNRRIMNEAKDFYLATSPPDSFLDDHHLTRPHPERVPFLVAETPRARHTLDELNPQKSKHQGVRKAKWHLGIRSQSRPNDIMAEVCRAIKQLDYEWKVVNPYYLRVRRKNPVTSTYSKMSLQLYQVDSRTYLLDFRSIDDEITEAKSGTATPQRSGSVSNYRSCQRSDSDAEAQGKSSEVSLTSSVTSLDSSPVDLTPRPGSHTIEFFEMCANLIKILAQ
T1 sequence (O43741 whole entry partner): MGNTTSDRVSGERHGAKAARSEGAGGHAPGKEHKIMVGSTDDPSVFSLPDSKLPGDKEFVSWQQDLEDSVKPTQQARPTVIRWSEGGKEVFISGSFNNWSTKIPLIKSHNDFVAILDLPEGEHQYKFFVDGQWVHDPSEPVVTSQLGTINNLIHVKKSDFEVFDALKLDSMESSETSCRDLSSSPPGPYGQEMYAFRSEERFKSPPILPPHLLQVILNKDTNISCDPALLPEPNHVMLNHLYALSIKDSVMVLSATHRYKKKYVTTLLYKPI
T1 sequence (P54619 whole entry partner): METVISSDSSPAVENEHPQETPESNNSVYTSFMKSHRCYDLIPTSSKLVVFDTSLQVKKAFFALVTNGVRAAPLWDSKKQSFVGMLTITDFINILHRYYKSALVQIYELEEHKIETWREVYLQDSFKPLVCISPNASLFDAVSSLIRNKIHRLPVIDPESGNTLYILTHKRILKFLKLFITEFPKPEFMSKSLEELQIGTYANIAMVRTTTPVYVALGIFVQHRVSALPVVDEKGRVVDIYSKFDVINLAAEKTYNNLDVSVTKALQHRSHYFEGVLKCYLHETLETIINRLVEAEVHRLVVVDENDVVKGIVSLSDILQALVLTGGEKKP

As to `CN(C(=O)CN1CCOCC1)c1ccc2sc3c(-c4cccc5c(=O)cc(N6CC7CCC(C6)O7)oc45)cccc3c2c1` [NU5455], the inhibition at 1 µM came out at 0.9%.
